In BigSolDB 2.1:

COc1cc(NS(=O)(=O)c2ccc(N)cc2)ncn1
Conditions	solubility (mole fraction)
in acetone, 299.05 K	0.00789
in acetone, 303.3 K	0.00849
in acetone, 308.2 K	0.00935
in acetone, 313.15 K	0.0105
in acetone, 318.05 K	0.0112
in acetone, 323.05 K	0.0124
in ethanol, 297.95 K	0.000496
in ethanol, 310.95 K	0.000859
in ethanol, 317.65 K	0.00109
in ethanol, 327.95 K	0.00161
in ethanol, 337.85 K	0.00243
in ethanol, 347.15 K	0.00356
in ethyl acetate, 300.65 K	0.00114
in ethyl acetate, 308.2 K	0.00131
in ethyl acetate, 316.05 K	0.00146
in ethyl acetate, 324 K	0.00169
in ethyl acetate, 331.95 K	0.00184
in ethyl acetate, 339.8 K	0.00205
in methanol, 294.55 K	0.000735
in methanol, 303.15 K	0.000951
in methanol, 309.95 K	0.00117
in methanol, 317.75 K	0.00164
in methanol, 325.85 K	0.00221
in methanol, 332.65 K	0.00284
in n-butanol, 305.2 K	0.000117
in n-butanol, 318.05 K	0.000288
in n-butanol, 327.85 K	0.000607
in n-butanol, 339.85 K	0.00121
in n-butanol, 352.55 K	0.0029
in n-butanol, 362.15 K	0.00479
in n-propanol, 300.25 K	0.000233
in n-propanol, 308.15 K	0.00037
in n-propanol, 318.05 K	0.000598
in n-propanol, 327.95 K	0.00102
in n-propanol, 342.75 K	0.00198
in n-propanol, 352.45 K	0.00353
in n-propanol, 361.85 K	0.00556
